Reference: ChEMBL document CHEMBL4483862, “Open-source discovery of chemical leads for next-generation chemoprotective antimalarials” (2018)

System: Plasmodium berghei
Test: Luciferase/luciferin-expressing antifolate-resistant parasites were used to infect a culture of HepG2 cells that were pre-incubated with compounds. Infected hepatocytes emit light due to the luciferase reaction. Assay results are presented as the percent inhibition of light emission compared to control. […]
Assay type: functional
Conditions: sporozoite; for IC90: read-out: LUCIFERASE INFECTION ASSAY - IC90
[1] = read-out: LUCIFERASE INFECTION ASSAY - IC50

SMILES	IC90 [µM]	other results
CC(C)Cc1nc(N2CCNCC2)c(C#N)c2c1CCCC2	> 11.1	IC50 (PBLUC_HILL_SLOPE 17, PBLUC_R_SQUARED 0.257, read-out: LUCIFERASE INFECTION ASSAY - IC50): 10 µM
Clc1nc2ccccc2cc1/C=N/Cc1ccc2c(c1)OCO2	> 10	IC50 [1]: > 10 µM
CC(C)OCCCNCC(O)COCc1ccccc1Cl (stereo not drawn)	> 10	IC50 [1]: > 10 µM
Cc1cccc(C)c1N1C(=O)C=CC1=O	> 16.4	IC50 (PBLUC_HILL_SLOPE 2.64, PBLUC_R_SQUARED 0.435, read-out: LUCIFERASE INFECTION ASSAY - IC50): > 16.4 µM
COc1ccc(Cc2nnc(S)n2NC(=O)Nc2ccc(Cl)c(Cl)c2)cc1	> 10	IC50 [1]: > 10 µM
O=C(Nc1ccccc1O)c1ccccc1NS(=O)(=O)c1ccc(Cl)s1	7.2	IC50 (HEPG2TOX_HILL_SLOPE 3.8, HEPG2TOX_R_SQUARED 0.66, PBLUC_HILL_SLOPE 5.25, PBLUC_R_SQUARED 0.554, read-out: LUCIFERASE INFECTION ASSAY - IC50): 4.74 µM
O=C(Nc1csc([N+](=O)[O-])c1)Nc1ccccc1Cl	> 11.1	IC50 (PBLUC_HILL_SLOPE 16.6, PBLUC_R_SQUARED 0.0194, read-out: LUCIFERASE INFECTION ASSAY - IC50): 11 µM
Cc1ccc(CNC(=O)c2cc(-c3ccccc3)nn2-c2ccccc2)cc1	> 10	IC50 (FFLUC_HILL_SLOPE 15.6, FFLUC_R_SQUARED 0.349, read-out: LUCIFERASE INFECTION ASSAY - IC50): > 10 µM
Cc1ccc(N2C(=O)C=CC2=O)c(C)c1	6.84	IC50 (HEPG2TOX_HILL_SLOPE 8.83, HEPG2TOX_R_SQUARED 0.656, PBLUC_HILL_SLOPE 7.12, PBLUC_R_SQUARED 0.655, read-out: LUCIFERASE INFECTION ASSAY - IC50): 5.02 µM
c1ccc2[nH]c(CN3CCN(Cc4csc5ccccc45)CC3)nc2c1	> 10	IC50 (PBLUC_HILL_SLOPE 5.23, 12.9, PBLUC_R_SQUARED 0.488, 0.411, read-out: LUCIFERASE INFECTION ASSAY - IC50): 9.2 µM
CC(C)N(C(=O)COC(=O)c1ccccc1-c1nc2ccccc2s1)c1ccccc1	> 10	IC50 (PBLUC_HILL_SLOPE 20.1, PBLUC_R_SQUARED 0.325, read-out: LUCIFERASE INFECTION ASSAY - IC50): 9.13 µM
N#Cc1ccc(-c2cnc3cnc(/C=C/c4ccccc4)cn23)cc1	1.49	IC50 (PBLUC_HILL_SLOPE 4.44, PBLUC_R_SQUARED 0.805, read-out: LUCIFERASE INFECTION ASSAY - IC50): 0.909 µM
Cn1c(CC(=O)NNC(=O)c2ccccc2Nc2ccccc2)nc2ccccc21	3.3	IC50 (HEPG2TOX_HILL_SLOPE 1.15, HEPG2TOX_R_SQUARED 0.894, PBLUC_HILL_SLOPE 16.3, PBLUC_R_SQUARED 0.746, read-out: LUCIFERASE INFECTION ASSAY - IC50): 2.88 µM
Cc1ccc[n+](CC(=O)c2ccc3c(c2)Cc2ccccc2-3)c1C	> 8.37	IC50 (PBLUC_HILL_SLOPE 0.83, PBLUC_R_SQUARED 0.466, read-out: LUCIFERASE INFECTION ASSAY - IC50): > 8.37 µM
CSCCC(NCc1cc(C)n(-c2ccnn2C(C)C)c1C)c1nc2ccccc2[nH]1 (stereo not drawn)	> 10	IC50 [1]: > 10 µM
CNC(=O)c1cccc(Nc2ccn3nc(-c4ccccc4)cc3n2)c1	3.76	
CCOCCCn1c(SCC(=O)N2CCCC3CCCCC32)nc2sc(C)c(C)c2c1=O (stereo not drawn)	> 10	IC50 (PBLUC_HILL_SLOPE 3.41, PBLUC_R_SQUARED 0.294, read-out: LUCIFERASE INFECTION ASSAY - IC50): 7.03 µM
Cc1cc(C)c(C#N)c(SCc2nc(-c3ccsc3)no2)n1	0.328	IC50 (FFLUC_HILL_SLOPE 0.467, FFLUC_R_SQUARED 0.935, PBLUC_HILL_SLOPE 1.22, PBLUC_R_SQUARED 0.907, read-out: LUCIFERASE INFECTION ASSAY - IC50): 0.0542 µM
Cc1cc(C)n(-c2nc(-c3ccccc3)cc(N(C)CCO)n2)n1	3.45	IC50 (HEPG2TOX_HILL_SLOPE 0.522, HEPG2TOX_R_SQUARED 0.395, PBLUC_HILL_SLOPE 14.2, PBLUC_R_SQUARED 0.716, read-out: LUCIFERASE INFECTION ASSAY - IC50): 2.96 µM
O=C(OCc1ccc(Cl)cc1)c1cnc(NNc2ncc(C(=O)OCc3ccc(Cl)cc3)c(C(F)(F)F)n2)nc1C(F)(F)F	0.682	IC50 (FFLUC_HILL_SLOPE 1.7, FFLUC_R_SQUARED 0.396, HEPG2TOX_HILL_SLOPE 1.81, HEPG2TOX_R_SQUARED 0.829, PBLUC_HILL_SLOPE 10.6, PBLUC_R_SQUARED 0.55, read-out: LUCIFERASE INFECTION ASSAY - IC50): 0.554 µM
O=C(OCCSc1ccc([N+](=O)[O-])c2nonc12)c1cccc(C(F)(F)F)c1	> 7.98	IC50 (FFLUC_HILL_SLOPE 3.07, FFLUC_R_SQUARED 0.747, HEPG2TOX_HILL_SLOPE 10.3, HEPG2TOX_R_SQUARED 0.666, PBLUC_HILL_SLOPE 2.08, PBLUC_R_SQUARED 0.429, read-out: LUCIFERASE INFECTION ASSAY - IC50): 3.94 µM

SMILES	IC90 [µM]	other results
Cc1ccc(OCc2nc(C(=O)Nc3cccc(S(=O)(=O)NC(C)(C)C)c3)cs2)cc1	> 10	IC50 [1]: > 10 µM
COc1cc(-c2cnc3sc(NCc4cccs4)nn23)ccc1O	> 9.21	IC50 [1]: > 9.21 µM
CCOC(=O)/C=C1\SCC(=O)N1CCOC(=O)c1ccccc1	> 10	IC50 [1]: > 10 µM
O=C(Nc1ccc(F)cc1)Nc1cnn(-c2ccc([N+](=O)[O-])cc2)c1C(F)(F)F	> 8.06	IC50 [1]: 2.92 µM
C[C@H](NC(N)=O)C(=O)OCC(=O)Nc1cccc(C#N)c1	> 10	IC50 [1]: > 10 µM
COc1ccc(-c2cc(NC(=O)C3CCN(C(=O)C(C)C)CC3)ccc2OC(F)F)cc1	> 10	IC50 (PBLUC_HILL_SLOPE 1.23, PBLUC_R_SQUARED 0.265, read-out: LUCIFERASE INFECTION ASSAY - IC50): 3.95 µM
Cc1c(C(=O)Nc2nc3c(C)cccc3s2)[nH]c2c1C(=O)CCC2	> 10	IC50 (PBLUC_HILL_SLOPE 2.07, PBLUC_R_SQUARED 0.0587, read-out: LUCIFERASE INFECTION ASSAY - IC50): 5.05 µM
Cc1sc2nc(-c3cccnc3)nc(NCCNc3ccccn3)c2c1C	1.71	IC50 (HEPG2TOX_HILL_SLOPE 1.88, HEPG2TOX_R_SQUARED 0.918, PBLUC_HILL_SLOPE 8.99, PBLUC_R_SQUARED 0.794, read-out: LUCIFERASE INFECTION ASSAY - IC50): 1.34 µM
N=C1N/C(=N/NC(=O)c2ccc(CN3C(=O)c4cccc5cccc3c45)cc2)c2ccccc21	> 10	IC50 (HEPG2TOX_HILL_SLOPE 8, HEPG2TOX_R_SQUARED 0.371, PBLUC_HILL_SLOPE 2.14, PBLUC_R_SQUARED 0.479, read-out: LUCIFERASE INFECTION ASSAY - IC50): 4.48 µM
Cc1ccc(Nc2cc(C(C)C)c(OS(=O)(=O)c3ccc(C)cc3)c(C(C)C)c2)cc1	9.61	IC50 (HEPG2TOX_HILL_SLOPE 1.43, HEPG2TOX_R_SQUARED 0.724, PBLUC_HILL_SLOPE 19.9, PBLUC_R_SQUARED 0.613, read-out: LUCIFERASE INFECTION ASSAY - IC50): 8.6 µM
N=C(Cc1cccs1)NOC(=O)Nc1cc(Cl)cc(Cl)c1	> 9.59	IC50 (PBLUC_HILL_SLOPE 2.97, PBLUC_R_SQUARED 0.445, read-out: LUCIFERASE INFECTION ASSAY - IC50): 6.76 µM
O=C(N1CCC(C(c2ccccc2)c2ccccc2)CC1)C(Cl)(Cl)Cl	> 8.32	IC50 (FFLUC_HILL_SLOPE 23.3, FFLUC_R_SQUARED 0.47, HEPG2TOX_HILL_SLOPE 6.45, HEPG2TOX_R_SQUARED 0.799, read-out: LUCIFERASE INFECTION ASSAY - IC50): > 8.32 µM
CCCN(Cc1nc(=O)c2ccc(Cl)cc2[nH]1)C(=O)C1CCN(c2nc3ccccc3o2)CC1	> 10	IC50 [1]: > 10 µM
Cc1ccc(NC(=O)C2(C)CCN2Cc2ccccc2Cl)cc1O (stereo not drawn)	> 9.57	IC50 (PBLUC_HILL_SLOPE 11.9, PBLUC_R_SQUARED 0.388, read-out: LUCIFERASE INFECTION ASSAY - IC50): 8.78 µM
O=c1c(Cl)c(Cl)cnn1-c1ccc(S(=O)(=O)NCCc2ccc3c(c2)OCCO3)cc1	> 10	IC50 (PBLUC_HILL_SLOPE 21.5, PBLUC_R_SQUARED 0.289, read-out: LUCIFERASE INFECTION ASSAY - IC50): 9.64 µM
CC(=O)c1c(C)[nH]c(-c2csc(-c3ccc(C)cc3C)n2)c1C	5.96	IC50 (PBLUC_HILL_SLOPE 2.12, PBLUC_R_SQUARED 0.351, read-out: LUCIFERASE INFECTION ASSAY - IC50): 2.12 µM
Cc1ccc(S(=O)(=O)Oc2c(C(C)C)cc(Nc3ccccc3)cc2C(C)C)cc1	> 10	IC50 (HEPG2TOX_HILL_SLOPE 0.494, HEPG2TOX_R_SQUARED 0.437, PBLUC_HILL_SLOPE 0.599, PBLUC_R_SQUARED 0.52, read-out: LUCIFERASE INFECTION ASSAY - IC50): 2.17 µM
N#C/C(=N\Nc1ccc(Cl)cc1)C(=O)c1ccc(Cl)cc1	2.91	IC50 (HEPG2TOX_HILL_SLOPE 1.51, HEPG2TOX_R_SQUARED 0.876, PBLUC_HILL_SLOPE 2.05, PBLUC_R_SQUARED 0.674, read-out: LUCIFERASE INFECTION ASSAY - IC50): 0.996 µM
CN(C)c1ccc(-c2cc(Nc3cccc(OCc4ccccc4)c3)ncn2)cc1	1.61	IC50 (HEPG2TOX_HILL_SLOPE 1.6, HEPG2TOX_R_SQUARED 0.897, PBLUC_HILL_SLOPE 1.97, PBLUC_R_SQUARED 0.838, read-out: LUCIFERASE INFECTION ASSAY - IC50): 0.526 µM
Cc1cc(C(=O)NCCc2cccc(F)c2)c(C)n1C(C)C	0.0364	IC50 (PBLUC_HILL_SLOPE 3.76, PBLUC_R_SQUARED 0.418, read-out: LUCIFERASE INFECTION ASSAY - IC50): 0.0203 µM
O=c1c2c([nH]c3c(-c4ccccc4)c(Cc4ccccc4)nn13)CCCC2	> 9.28	IC50 [1]: > 9.28 µM
